From the supplement of paper PMC13380429

Columns and labels:
Details in all cases: 72 h
[1] = test system: Caco-2; experiment: cell viability relative to DMSO; higher = less toxic
[2] = test system: Calu-3; experiment: as above
[3] = test system: Vero E6; experiment: as above
[4] = test system: U2OS; experiment: as above
[5] = test system: HepG2; experiment: as above
[6] = test system: Caco-2; experiment: relative viability EC50 (midpoint between 100% and the lowest measured viability); higher = less toxic
[7] = test system: Calu-3; experiment: as above
[8] = test system: Vero E6; experiment: as above
[9] = test system: U2OS; experiment: as above
[10] = test system: HepG2; experiment: as above
[11] = test system: Caco-2; experiment: drug sensitivity score (DSS) for viability; higher = more toxic; extreme values may be limits of the assay
[12] = test system: Calu-3; experiment: as above
[13] = test system: Vero E6; experiment: as above
[14] = test system: U2OS; experiment: as above
[15] = test system: HepG2; experiment: as above

Structure (SMILES)	cell viability ([1]; 1 nM) [%]	cell viability ([1]; 10 nM) [%]	cell viability ([1]; 100 nM) [%]	cell viability ([1]; 1000 nM) [%]	cell viability ([1]; 10000 nM) [%]	cell viability ([2]; 1 nM) [%]	cell viability ([2]; 10 nM) [%]	cell viability ([2]; 100 nM) [%]	cell viability ([2]; 1000 nM) [%]	cell viability ([2]; 10000 nM) [%]	cell viability ([3]; 1 nM) [%]	cell viability ([3]; 10 nM) [%]	cell viability ([3]; 100 nM) [%]	cell viability ([3]; 1000 nM) [%]	cell viability ([3]; 10000 nM) [%]	cell viability ([4]; 1 nM) [%]	cell viability ([4]; 10 nM) [%]	cell viability ([4]; 100 nM) [%]	cell viability ([4]; 1000 nM) [%]	cell viability ([4]; 10000 nM) [%]	cell viability ([5]; 1 nM) [%]	cell viability ([5]; 10 nM) [%]	cell viability ([5]; 100 nM) [%]	cell viability ([5]; 1000 nM) [%]	cell viability ([5]; 10000 nM) [%]	relative viability EC50 [6] [µM]	relative viability EC50 [7] [µM]	relative viability EC50 [8] [µM]	relative viability EC50 [9] [µM]	relative viability EC50 [10] [µM]	drug sensitivity score [11]	drug sensitivity score [12]	drug sensitivity score [13]	drug sensitivity score [14]	drug sensitivity score [15]
CCCC[P+](CCCC)(CCCC)Cc1ccc(NC(=O)[C@H](Cc2ccc3ccccc3c2)N/C(=N/C2CCCCC2)NC2CCCCC2)cc1	90.8	100	87.9	102	81.4	94.7	91.2	97.5	97.4	86.2	102	97.7	107	100	90.7	98.7	99.7	96.5	96.6	88.9	95.5	107	117	97.3	88.5	> 10	> 10	> 10	> 10	> 10	0.4	0	0	0	0.1
COc1cc(Br)c(S(=O)(=O)Nc2ccc(C(F)(F)F)c(O[C@@H]3CCN(C)C3)c2)cc1OC	102	100	101	95.9	95.9	103	94.7	99.3	98.1	104	91.5	101	99	103	94.9	105	96.3	95	98.3	96.6	85.4	107	93.3	96.7	91.2	> 10	> 10	> 10	> 10	> 10	0	0	0	0	0
CCOC(=O)c1ccc(O)cc1 [ethyl-paraben]	101	94.3	101	99.2	100	96.6	93	106	97.3	92	102	99.7	98.9	104	99.8	96.3	97	107	98.3	106	108	102	101	94.7	97.8	> 10	> 10	> 10	> 10	> 10	0	0	0	0	0
CN(C)[C@@H](CCOc1cccc2ccccc12)c1ccccc1 [dapoxetine]	98.5	96	101	102	89.6	103	104	105	91.7	81.3	97.5	101	98.7	98.8	88.6	103	103	103	98.2	89.3	94.1	104	97.1	95.7	89	> 10	> 10	> 10	> 10	> 10	0	1.3	0.1	0	0
CC(=O)NCCCCCC(=O)O [acexamic-acid]	108	99.2	98.3	108	103	98.9	89.2	94.9	114	102	99.4	99.1	101	99.3	102	96.8	104	96.3	104	100	93	105	99.1	93.7	107	> 10	> 10	> 10	> 10	> 10	0	0	0	0	0
CC(C(=O)O)c1ccc2c(c1)Cc1cccnc1O2 (stereo not given) [pranoprofen]	88.3	86.7	89.5	95.3	102	97.5	92.9	97.1	100	108	96.2	96.5	98.4	100	105	104	99.1	95.2	104	106	95.8	103	94.1	104	111	> 10	> 10	> 10	> 10	> 10	0	0	0	0	0
